Measurements: US9248124B2, “Use of inhibitors of IκB kinase for the treatment of cancer” (Millennium Pharmaceuticals, Inc., priority 2001, dated 2016)

Columns and labels:
Type in all cases: cell-based, human
[1] = tested on: MM.1S cells; test: DNA synthesis ([3H]-TdR uptake) in MM.1S cells with Dex, IL-6, Thal or IMiD3; conditions: 48 h
Method: (§1) Proliferation was measured as previously described (Hideshima et al., Blood 96:2943 (2000)). MM cells (3×10^4 cells/well) were incubated in 96-well culture plates (Costar, Cambridge, Mass.) in the presence of media, PS-341, compound 1 and/or Dex or recombinant human IL-6 (Genetics Institute, Cambridge, Mass.) for 48 h at 37° C. DNA synthesis was measured by [^3H]-thymidine ([^3H]-TdR, NEN Products, Boston, Mass.) uptake. Cells were pulsed with [^3H]TdR (0.5 μCi/well) during the last 8 h of 48 h cultures. All experiments were performed in triplicate.

[2] = tested on: U266 cells; test: Cell cycle profile by PI staining and flow cytometry, U266; conditions: 10 μM for 24, 36 and 48 h, FIG. 4
Method: For cell cycle analysis, MM cells cultured for 24-48 h in compound 1 (10 μM), Dex (1 μM); IL-6 (20 ng/mL), or control media were harvested, washed with phosphate-buffered saline (PBS), fixed with 70% ethanol, and treated with 10 μg/mL of RNase (Roche Diagnostics Corp., Indianapolis, Ind.). Cells were then stained with propidium iodine (PI, Sigma) (5 μg/mL). For detection of ICAM-1 expression, MM cells cultured in TNFα (5 ng/mL) in the presence or absence of compound 1 (10 μM) were harvested, washed with PBS, and stained with mouse IgG isotype control or FITC-conjugated mouse anti-human CD54 Ab. Both cell cycle profile and ICAM-1 expression were determined using an Epics (Coulter Immunology, Hialeah, Fla.) flow cytometer, as in prior studies (Hideshima et al., Oncogene 20:4519 (2001)).

[3] = tested on: MM.1S cells adherent to BMSCs; test: Paracrine MM.1S cell growth on BMSCs ([3H]-TdR uptake); conditions: 0.4-10 μM, 48 h, dose dependent; FIG. 12B
Method: as §1
(§2) To evaluate growth stimulation and signaling in MM cells adherent to BMSCs, 3×10^4 MM.1S cells were cultured in BMSC coated 96-well plates for 48 h, in the presence or absence of compound 1. DNA synthesis was measured as described above. The Duoset ELISA (R&D System) was used to measure IL-6 in supernatants of 48 h cultures of BMSCs with or without MM.1S cells, in the presence or absence of compound 1.

[4] = tested on: STAT3 phosphorylation; test: Immunoblot of IL-6 induced STAT3 phosphorylation in MM.1S cells; conditions: IL-6 50 ng/mL for 5 min, compound 1 10 μM 90 min, FIG. 5
Method: (§3) MM cells were cultured with PS-341 or compound 1; harvested; washed; and lysed using lysis buffer: 50 mM Tris-HCl (pH 7.4), 150 mM NaCl, 1% NP-40, 5 mM EDTA, 5 mM NaF, 2 mM Na3VO4, 1 mM PMSF, 5 μg/mL leupeptin, and 5 μg/mL aprotinin. For detection of phospho-IκBα, IκBα, phospho-MAPK, phospho-STAT3, ERK2 or alpha-tubulin, cell lysates were subjected SDS-PAGE, transferred to PVDF membrane (Bio-Rad Laboratories, Hercules, Calif.), and immunoblotted with anti-phospho-IκBα, -IκBα, -phospho-MAPK, or -phospho-STAT3 Abs (Cell Signaling, Beverly, Mass.), and anti-alpha-tubulin (Sigma) Abs.

[5] = tested on: IL-6 secretion in BMSCs; test: IL-6 secretion in BMSC cultures with or without MM.1S cells (ELISA); conditions: 0.4-10 μM, 48 h, dose dependent; FIG. 12A
Description: BM specimens were obtained from patients with MM. Mononuclear cells (MNCs) separated by Ficoll-Hipaque density sedimentation were used to established long-term BM cultures, as previously described (Uchiyama et al., Blood 82:3712-3720 (1993)). When an adherent cell monolayer had developed, cells were harvested in Hank's Buffered Saline Solution (HBSS) containing 0.25% trypsin and 0.02% EDTA, washed, and collected by centrifugation.
as §2

[6] = tested on: IκBα phosphorylation and degradation in MM.1S cells; test: Immunoblot of IκBα phosphorylation and degradation triggered by TNFα in MM.1S cells
Method: as §3
Inhibition of IκBα phosphorylation by compound 1 was assayed in MM.1S and patient MM cells triggered by TNFα. […] To study the dose-dependent effect of compound 1, MM.1S cells were pre-treated with 1.25-40 μM compound 1 for 90 min, and then stimulated by TNFα (5 ng/mL).
The effect of Dex, compound 1, PS-341 and/or IL-6 on TNFα induced phosphorylation of IκBα in MM.1S cells was next examined. […] In contrast compound 1, in the presence or absence of IL-6, inhibits phosphorylation of IκBα. Dex inhibits TNFα-induced degradation of IκBα, whereas IL-6 blocks this effect. Both PS-341 and compound 1 inhibit degradation of IκBα, in the presence or absence of IL-6.

[7] = tested on: p42/44 MAPK phosphorylation; test: Immunoblot of IL-6 induced p42/44 MAPK phosphorylation in MM.1S cells; conditions: IL-6 50 ng/mL for 5 min, compound 1 10 μM 90 min, PS-341 5 μM 60 min, FIG. 5
Method: as §3

[8] = tested on: Akt phosphorylation; test: Phosphorylation of Akt triggered by IL-6 in MM.1S cells; conditions: compound 1 pre-treatment, data not shown

O=C(Nc1cc(Cl)cc2c1[nH]c1cnccc12)c1cccnc1 [compound 1, N-(6-chloro-9H-β-carbolin-8-yl)-nicotinamide]
inhibitory effect of IL-6 against IMiD3 ([1]; compound 1 10 μM, IL-6 20 ng/mL, FIG. 9): neutralized
protective effect of IL-6 on Dex-induced growth inhibition ([1]; compound 1 0.4-10 μM, Dex 0.1 μM, IL-6 50 ng/mL, FIG. 8C): abrogated
constitutive and IL-6 induced DNA synthesis in MM.1S cells ([1]; compound 1 1.5-12.5 μM, IL-6 0.5-50 ng/mL, dose dependent, FIG. 8B): abrogated
effect of compound 1 on Dex inhibition of proliferation ([1]; compound 1 1.5-50 μM with Dex, FIG. 8A): did not enhance
cell cycle profile [2]: induced G1 growth arrest, but not apoptosis
increased MM.1S cell growth triggered by adherence to BMSCs [3]: inhibits
STAT3 phosphorylation [4]: does not inhibit
constitutive secretion of IL-6 in BMSCs [5]: blocks
increased IL-6 secretion triggered by adhesion of MM.1S cells to BMSCs [5]: blocks
TNFα-induced phosphorylation of IκBα ([6]; Dex 1 μM 18 h, PS-341 5 μM 60 min, compound 1 10 μM 90 min, presence or absence of IL-6, TNFα 5 ng/mL 5 min, FIG. 7): inhibits
TNFα-induced degradation of IκBα ([6]; Dex 1 μM 18 h, PS-341 5 μM 60 min, compound 1 10 μM 90 min, TNFα 5 ng/mL 5 min, FIG. 7): inhibit
phosphorylation and degradation of IκBα ([6]; compound 1 pre-treatment 10 μM for 90 min, then TNFα 5 ng/mL, FIG. 1A): completely blocked
concentration at which phosphorylation of IκBα was completely inhibited ([6]; pre-treated with 1.25-40 μM for 90 min, then TNFα 5 ng/mL, FIG. 1B): ≥ 5 µM
p42/44 MAPK phosphorylation [7]: does not inhibit
Phosphorylation of Akt triggered by IL-6 [8]: unaffected
